Reference: patent US20230096766A1, “AMINO ACID HAVING FUNCTIONAL GROUP CAPABLE OF INTERMOLECULAR HYDROGEN BONDING, PEPTIDE COMPOUND CONTAINING SAME AND METHOD FOR PRODUCTION THEREOF” (Chugai Seiyaku Kabushiki Kaisha, priority 2018, published 2023)
*1 amine or outer side, *2 acyl side, *3 side chain or, on linkers, in order; H or OH if unused. Where a SMILES comes first, the peptide text is derived from it. Bridges are numbered along the chain shown (N, C = ends). [ ]: non-standard residue; d: D form. The star is where a group is joined. ξ: configuration not given here. Phe(3-OMe,4-CONHMs) = COc1cc(C[C@H](N)C(=O)O)ccc1C(=O)NS(C)(=O)=O; X19 = CC(C)C[C@H](NN(C)[C@H](Cc1ccccc1)N(C)[*:1])C(=O)[*:2]; Phe(3-OMe,4-CONHMe) = CNC(=O)c1ccc(C[C@H](N)C(=O)O)cc1OC; X11 = CNC(=O)c1ccc(CCN(CC(=O)[*:2])[*:1])cc1OC; NMePhe(3-Cl) = CN[C@@H](Cc1cccc(Cl)c1)C(=O)O; X12 = O=C([C@H](CCCC(O)C(F)(F)F)N[*:1])[*:2]; ξGln(SO2Me) = CS(=O)(=O)NC(=O)CCC(N)C(=O)O; Tyr(3-F) = N[C@@H](Cc1ccc(O)c(F)c1)C(=O)O; Tyr(3-OMe) = COc1cc(C[C@H](N)C(=O)O)ccc1O; NMeW = CN[C@@H](Cc1c[nH]c2ccccc12)C(=O)O; NMehPhe = CN[C@@H](CCc1ccccc1)C(=O)O; X9 = O=C([C@@H](CN[*:1])COCCO)[*:2]; NMeF = CN[C@@H](Cc1ccccc1)C(=O)O; NMeGABA = CN(CCCC(=O)[*:2])[*:1]; NMeI = CC[C@H](C)[C@H](NC)C(=O)O; NMeL = CN[C@@H](CC(C)C)C(=O)O; Butyl(3S-OH) = C[C@H](O)CC*; NMeV = CN[C@H](C(=O)O)C(C)C; NMeAbu = CC[C@H](NC)C(=O)O; NMeA = CN[C@@H](C)C(=O)O; Piperidide = C1CCN(*)CC1; NBuGly = CCCCNCC(=O)O; Ethyl(2-OH) = OCC*; ξS = NC(CO)C(=O)O; Sar = CNCC(=O)O; tBu = CC(C)(C)*

assay: in vitro; conditions: human, Caco-2, Caco-2

SMILES	Papp [×10⁻⁶ cm/s]
CCCCN1CC(=O)N(C)[C@@H](C(C)C)C(=O)N[C@H](C(=O)N2CCCCC2)CC(=O)N(C)[C@@H](CC(C)C)C(=O)NC(CCC(=O)NS(C)(=O)=O)C(=O)N(C)[C@@H](CC(C)C)C(=O)N(C)[C@@H](Cc2ccccc2)C(=O)N[C@@H](CC(C)C)C(=O)N(C)[C@@H](Cc2ccccc2)C(=O)N(C)[C@@H](CC(C)C)C(=O)N[C@@H]([C@@H](C)O)C1=O (stereo partly drawn) [pd62] ([NMeL][ξGln(SO2Me)][NMeL][NMeF]L[NMeF][NMeL]T[NBuGly][NMeV]D-Piperidide; lactam N-11)	< 0.13
CCCCN1CC(=O)N(C)[C@@H](C(C)C)C(=O)N[C@H](C(=O)N2CCCCC2)CC(=O)N(C)[C@@H](CC)C(=O)N[C@@H](CC(C)C)C(=O)N(C)[C@@H](CC(C)C)C(=O)N(C)[C@@H](Cc2ccccc2)C(=O)NC(CCC(=O)NS(C)(=O)=O)C(=O)N(C)[C@@H](Cc2ccccc2)C(=O)N(C)[C@@H](CC(C)C)C(=O)N[C@@H](CC(C)C)C1=O (stereo partly drawn) [pd69] ([NMeAbu]L[NMeL][NMeF][ξGln(SO2Me)][NMeF][NMeL]L[NBuGly][NMeV]D-Piperidide; lactam N-11)	< 0.14

same assay, conditions: human, Caco-2, Caco-2 (cm/sec)

SMILES	Papp [×10⁻⁶ cm/s]
CC(C)C[C@H]1C(=O)N[C@@H](Cc2ccc(O)cc2)C(=O)N(C)[C@@H](CC(C)C)C(=O)N(C)[C@@H](Cc2ccccc2)C(=O)N[C@@H](COC(C)(C)C)C(=O)N(C)[C@@H](CC(C)C)C(=O)N[C@@H]([C@@H](C)O)C(=O)N(C)[C@@H](CC(C)C)C(=O)N(C)[C@@H](CC(C)C)C(=O)N[C@H](C(=O)N2CCCCC2)CC(=O)N(C)CCCC(=O)N1C [Compound F04] ([NMeGABA][NMeL]Y[NMeL][NMeF]S(tBu)[NMeL]T[NMeL][NMeL]D-Piperidide; lactam N-11)	0.13
CCCCN1CC(=O)N(C)[C@@H](CC(C)C)C(=O)N[C@H](C(=O)N2CCCCC2)CC(=O)N(C)[C@@H](C)C(=O)N[C@@H](COCC[C@H](C)O)C(=O)N(C)[C@@H](CC(C)C)C(=O)N(C)[C@@H](Cc2cccc(Cl)c2)C(=O)N[C@@H](CC(C)C)C(=O)N(C)[C@@H](Cc2ccccc2)C(=O)N(C)[C@@H](C(C)C)C(=O)N[C@@H]([C@@H](C)O)C1=O [AP103] ([NMeA]S(Butyl(3S-OH))[NMeL][NMePhe(3-Cl)]L[NMeF][NMeV]T[NBuGly][NMeL]D-Piperidide; lactam N-11)	0.89
COc1cc(C[C@@H]2NC(=O)[C@H](CC(C)C)N(C)C(=O)CN(C)C(=O)[C@H]([C@@H](C)O)NC(=O)[C@H](CC(C)C)N(C)C(=O)[C@H](CC(C)C)NN(C)[C@H](Cc3ccccc3)N(C)C(=O)[C@@H](C(C)C)NC(=O)C[C@@H](C(=O)N3CCCCC3)NC(=O)[C@H](CC(C)C)N(C)C(=O)[C@H](CC(C)C)N(C)C2=O)ccc1O [Compound E01] ([dV][X19][NMeL]T[Sar][NMeL][Tyr(3-OMe)][NMeL][NMeL]D-Piperidide; lactam N-10)	1.1
CC[C@H](C)[C@@H]1NC(=O)[C@H](CC(C)C)N(C)C(=O)[C@@H](CC(C)C)NC(=O)C[C@@H](C(=O)N2CCCCC2)NC(=O)[C@H](CC(C)C)N(C)C(=O)[C@H](Cc2ccccc2)N(C)C(=O)[C@H](COC(C)(C)C)NC(=O)CN(CCc2ccc(C(=O)NC)c(OC)c2)C(=O)CN(C)C(=O)[C@H]([C@@H](C)O)NC(=O)[C@H](CC(C)C)N(C)C1=O [AP221] ([dL][NMeL]I[NMeL]T[Sar][X11]S(tBu)[NMeF][NMeL]D-Piperidide; lactam N-11)	0.28
CCCCN1CC(=O)N(C)[C@@H](CC(C)C)C(=O)N[C@H](C(=O)N2CCCCC2)CC(=O)N(C)[C@@H](CC(C)C)C(=O)NC[C@@H](COCCO)C(=O)N(C)[C@@H](CC(C)C)C(=O)N(C)[C@@H](Cc2ccccc2)C(=O)N[C@@H](CC(C)C)C(=O)N(C)[C@@H](Cc2ccccc2)C(=O)N(C)[C@@H](CC(C)C)C(=O)N[C@@H]([C@@H](C)O)C1=O [AP131] ([NMeL][X9][NMeL][NMeF]L[NMeF][NMeL]T[NBuGly][NMeL]D-Piperidide; lactam N-11)	1.1
CC(C)C[C@@H]1NC(=O)[C@H](CCc2ccccc2)N(C)C(=O)[C@@H](C(C)C)NC(=O)C[C@@H](C(=O)N2CCCCC2)NC(=O)[C@H](CC(C)C)N(C)C(=O)[C@H](Cc2cccc(Cl)c2)N(C)C(=O)[C@H](COCCO)NC(=O)[C@H](CC(C)C)N(C)C(=O)CN(C)C(=O)[C@H]([C@@H](C)O)NC(=O)[C@H](CC(C)C)N(C)C1=O [Compound A02] ([dV][NMehPhe]L[NMeL]T[Sar][NMeL]S(Ethyl(2-OH))[NMePhe(3-Cl)][NMeL]D-Piperidide; lactam N-11)	0.45
CC(C)C[C@H]1C(=O)N(C)[C@@H](Cc2c[nH]c3ccccc23)C(=O)N(C)[C@@H](Cc2ccccc2)C(=O)N[C@@H]([C@@H](C)O)C(=O)N(C)[C@@H](C)C(=O)N(C)[C@@H](CC(C)C)C(=O)N[C@H](C(=O)N2CCCCC2)CC(=O)N(C)[C@@H](C)C(=O)N(C)[C@@H](CC(C)C)C(=O)N(C)[C@@H](CC(C)C)C(=O)N[C@@H](C)C(=O)N1C [pd104] ([NMeA][NMeL][NMeL]A[NMeL][NMeW][NMeF]T[NMeA][NMeL]D-Piperidide; lactam N-11)	0.025
CC[C@H](C)[C@H]1C(=O)N[C@@H](Cc2ccc(O)cc2)C(=O)N(C)CC(=O)N(C)[C@@H](CC(C)C)C(=O)N[C@H](C(=O)N2CCCCC2)CC(=O)N(C)[C@@H](C)C(=O)N[C@@H](C(C)C)C(=O)N(C)[C@@H](CC(C)C)C(=O)N(C)[C@@H](CC(C)C)C(=O)N[C@@H](C)C(=O)N(C)[C@@H](Cc2ccccc2)C(=O)N1C [pd126] ([NMeA]V[NMeL][NMeL]A[NMeF][NMeI]Y[Sar][NMeL]D-Piperidide; lactam N-11)	0.42
CCCCN1CC(=O)N(C)[C@@H](CC(C)C)C(=O)N[C@@H](Cc2ccc(C(=O)NS(C)(=O)=O)c(OC)c2)C(=O)N(C)[C@@H](CC(C)C)C(=O)N(C)[C@@H](CC(C)C)C(=O)N[C@H](C(=O)N2CCCCC2)CC(=O)N[C@H](CC(C)C)C(=O)N(C)[C@@H](Cc2ccccc2)C(=O)N[C@@H](C(C)C)C(=O)N(C)[C@@H](CC(C)C)C(=O)N[C@@H]([C@@H](C)O)C1=O [AP136] ([dL][NMeF]V[NMeL]T[NBuGly][NMeL][Phe(3-OMe,4-CONHMs)][NMeL][NMeL]D-Piperidide; lactam N-11)	0.47
CC[C@H](C)[C@@H]1NC(=O)[C@H](CC(C)C)N(C)C(=O)CCCN(C)C(=O)C[C@@H](C(=O)N2CCCCC2)NC(=O)[C@H](CC(C)C)N(C)C(=O)[C@H](C)N(C)C(=O)[C@H](Cc2ccc(O)cc2)NC(=O)[C@H](CC(C)C)N(C)C(=O)[C@H](COC(C)(C)C)NC(=O)[C@H](CC(C)C)N(C)C(=O)[C@H](Cc2ccccc2)N(C)C1=O [pd129] ([NMeGABA][NMeL]I[NMeF][NMeL]S(tBu)[NMeL]Y[NMeA][NMeL]D-Piperidide; lactam N-11)	0.16
CC(C)C[C@H]1C(=O)N[C@@H](C(C)C)C(=O)N(C)[C@@H](Cc2ccccc2)C(=O)N(C)[C@@H](Cc2cccc(Cl)c2)C(=O)NC(COCC[C@H](C)O)C(=O)N(C)[C@@H](CC(C)C)C(=O)N[C@@H]([C@@H](C)O)C(=O)N(C)[C@@H](CC(C)C)C(=O)N(C)[C@@H](CC(C)C)C(=O)N[C@H](C(=O)N2CCCCC2)CC(=O)N(C)CCCC(=O)N1C (stereo partly drawn) [AP102] ([NMeGABA][NMeL]V[NMeF][NMePhe(3-Cl)][ξS](Butyl(3S-OH))[NMeL]T[NMeL][NMeL]D-Piperidide; lactam N-11)	0.43
CC[C@H](C)[C@@H]1NC(=O)[C@H](CC(C)C)N(C)C(=O)CCCN(C)C(=O)C[C@@H](C(=O)N2CCCCC2)NC(=O)[C@H](CC(C)C)N(C)C(=O)[C@H](CC(C)C)N(C)C(=O)[C@H]([C@@H](C)O)NC(=O)[C@H](CC(C)C)N(C)C(=O)[C@H](Cc2ccc(C(=O)NC)c(OC)c2)NC(=O)[C@H](CC(C)C)N(C)C(=O)[C@H](Cc2ccccc2)N(C)C1=O [AP30] ([NMeGABA][NMeL]I[NMeF][NMeL][Phe(3-OMe,4-CONHMe)][NMeL]T[NMeL][NMeL]D-Piperidide; lactam N-11)	0.19
CC(C)C[C@@H]1NC(=O)[C@H](CC(C)C)N(C)C(=O)[C@H](C)N(C)C(=O)[C@@H](C(C)C)NC(=O)C[C@@H](C(=O)N2CCCCC2)NC(=O)[C@H]([C@@H](C)O)NC(=O)[C@H](C)N(C)C(=O)[C@H](C)N(C)C(=O)[C@H](CC(C)C)N(C)C(=O)[C@H](Cc2ccc(O)c(F)c2)NC(=O)[C@H](Cc2ccccc2)N(C)C1=O [pd113] ([dV][NMeA][NMeL]L[NMeF][Tyr(3-F)][NMeL][NMeA][NMeA]TD-Piperidide; lactam N-11)	0.029

same assay, conditions: human, Caco-2, Caco-2 (cm/sec) Papp

SMILES	Papp [×10⁻⁶ cm/s]
CC(C)C[C@@H]1NC(=O)[C@H](Cc2ccccc2)N(C)C(=O)[C@H](CC(C)C)N(C)C(=O)[C@H](Cc2ccccc2)NC(=O)[C@H](C)NC(=O)C[C@@H](C(=O)N2CCCCC2)NC(=O)[C@H](Cc2ccccc2)N(C)C(=O)CN(C)C(=O)[C@H](Cc2ccccc2)NC(=O)[C@H](CC(C)C)N(C)C(=O)[C@H]([C@@H](C)O)NC1=O [pd244] (AF[NMeL][NMeF]LT[NMeL]F[Sar][NMeF]D-Piperidide; lactam N-11)	0.045

same assay, conditions: human, Caco-2, Caco-2 (membrane permeability)

SMILES	Papp [×10⁻⁶ cm/s]
CC[C@H](C)[C@@H]1NC(=O)[C@H](CC(C)C)N(C)C(=O)[C@H](CCCC(O)C(F)(F)F)NC(=O)[C@H](Cc2ccccc2)N(C)C(=O)CN(C)C(=O)C[C@@H](C(=O)N2CCCCC2)NC(=O)[C@H](CC(C)C)N(C)C(=O)[C@H](COC(C)(C)C)NC(=O)[C@H](CC(C)C)N(C)C(=O)[C@H](Cc2ccccc2)N(C)C(=O)CN(C)C1=O (stereo partly drawn) [Compound D17] ([Sar][NMeF][X12][NMeL]I[Sar][NMeF][NMeL]S(tBu)[NMeL]D-Piperidide; lactam N-11)	1
CC[C@H](C)[C@@H]1NC(=O)[C@H](CC(C)C)N(C)C(=O)CCCN(C)C(=O)C[C@@H](C(=O)N2CCCCC2)NC(=O)[C@H](CC(C)C)N(C)C(=O)[C@H](CC(C)C)N(C)C(=O)[C@H]([C@@H](C)O)NC(=O)[C@H](CC(C)C)N(C)C(=O)[C@H](CCCC(O)C(F)(F)F)NC(=O)[C@H](Cc2ccccc2)N(C)C(=O)[C@H](Cc2ccccc2)N(C)C1=O (stereo partly drawn) [Compound D03] ([NMeGABA][NMeL]I[NMeF][NMeF][X12][NMeL]T[NMeL][NMeL]D-Piperidide; lactam N-11)	0.33
